Converted amounts (≈) assume the structure as drawn. Some results are limits rather than exact numbers.

Data set [1] has as its target T1, Tyrosine-protein kinase BTK (Homo sapiens, UniProt Q06187). Description: Inhibition of BTK (unknown origin) incubated for 40 mins by radiometric assay.
Data set [2] is described as follows: Antiproliferative activity against human MINO cells reduction in cell viability incubated for 72 hrs by CellTiter-Glo luminescent cell viability assay. The format is functional, cell-based.
The subject of another data set is Z-138. Description: Antiproliferative activity against human Z138 cells reduction in cell viability incubated for 72 hrs by CellTiter-Glo luminescent cell viability assay. The conditions noted are these: Z-138, 72 h. (In general: ATP-based viability assays read luminescence as a measure of living cells.)
Data set [3] concerns the target T1, Tyrosine-protein kinase BTK. In words: Inhibition of BTK (unknown origin) using Poly(Glu4,Tyr1) as substrate in presence of ATP.
Data set [4] is described as follows: Kinetic solubility of the compound. The format is physicochemical. The conditions noted are these: read-out: Kinetic_solubility.
Data set [5] deals with Epidermal growth factor receptor (Homo sapiens, UniProt P00533). Description: Inhibition EGFR (unknown origin) expressed in baculovirus expression system by ELISA. For orientation: An ELISA detects its analyte on a solid surface through an enzyme-linked reagent.
Chain of Epidermal growth factor receptor (P00533 whole entry): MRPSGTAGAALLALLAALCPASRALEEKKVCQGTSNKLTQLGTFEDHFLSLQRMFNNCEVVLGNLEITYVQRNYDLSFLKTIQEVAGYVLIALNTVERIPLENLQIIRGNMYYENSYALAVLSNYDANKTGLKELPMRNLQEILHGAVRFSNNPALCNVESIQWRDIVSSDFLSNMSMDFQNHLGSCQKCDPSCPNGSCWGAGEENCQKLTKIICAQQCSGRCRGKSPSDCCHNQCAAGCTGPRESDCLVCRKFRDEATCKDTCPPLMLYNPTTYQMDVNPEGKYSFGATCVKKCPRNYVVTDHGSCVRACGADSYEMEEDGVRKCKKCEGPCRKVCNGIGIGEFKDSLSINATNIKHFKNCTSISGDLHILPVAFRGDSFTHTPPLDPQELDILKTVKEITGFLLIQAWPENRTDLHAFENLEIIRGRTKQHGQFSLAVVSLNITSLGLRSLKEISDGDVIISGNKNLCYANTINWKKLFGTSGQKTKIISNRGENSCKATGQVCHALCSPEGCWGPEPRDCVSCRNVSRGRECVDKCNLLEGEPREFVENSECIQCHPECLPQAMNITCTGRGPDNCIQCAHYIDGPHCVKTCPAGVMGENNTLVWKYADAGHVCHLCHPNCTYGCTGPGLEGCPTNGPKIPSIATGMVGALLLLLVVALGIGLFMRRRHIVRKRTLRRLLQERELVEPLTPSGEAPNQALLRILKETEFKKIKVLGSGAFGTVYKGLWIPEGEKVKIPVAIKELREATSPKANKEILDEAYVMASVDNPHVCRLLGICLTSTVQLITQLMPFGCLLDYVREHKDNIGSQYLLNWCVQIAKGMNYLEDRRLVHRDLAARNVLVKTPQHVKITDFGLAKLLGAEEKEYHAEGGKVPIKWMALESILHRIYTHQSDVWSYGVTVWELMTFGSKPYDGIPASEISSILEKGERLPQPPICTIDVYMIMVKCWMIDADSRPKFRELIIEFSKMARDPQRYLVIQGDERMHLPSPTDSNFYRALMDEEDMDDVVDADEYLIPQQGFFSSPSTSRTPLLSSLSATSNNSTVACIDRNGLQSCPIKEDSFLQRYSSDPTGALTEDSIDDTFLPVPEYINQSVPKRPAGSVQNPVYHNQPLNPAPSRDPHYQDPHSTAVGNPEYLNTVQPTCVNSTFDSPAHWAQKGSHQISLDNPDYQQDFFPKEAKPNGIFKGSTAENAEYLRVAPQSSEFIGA
In data set [6] the test system is TMD8. Description: Antiproliferative activity against human TMD8 cells assessed as reduction in cell viability incubated for 72 hrs by CCK-8 assay. It is filed as functional, cell-based. The conditions noted are these: TMD8, 72 h. A general note: Tetrazolium dyes change colour on reduction, which living cells bring about.
Data set [7] addresses T1, Tyrosine-protein kinase BTK. Description: Inhibition of BTK (unknown origin) using Poly(Glu4,Tyr1) as substrate in presence of ATP by radiometric kinase assay.
The next data set addresses Bcr/Abl fusion protein (Homo sapiens, UniProt P00519). In words: Inhibition of BCR-ABL (unknown origin) using peptide GGEAIYAAPFKK as substrate. The format is protein assay.
For data set [8], the system named is Ramos. Description: Antiproliferative activity against human Ramos cells assessed as growth inhibition incubated for 72 hrs by resazurin dye based fluorescence microplate reader analysis. The format is functional.
For data set [9], the target named is T1, Tyrosine-protein kinase BTK. In words: Inhibition of BTK (unknown origin) incubated for 10 mins by caliper mobility shift assay.
Another data set deals with OCI-Ly10. Description: Antiproliferative activity against human OCILY10 cells assessed as inhibition of cell proliferation by MTT assay. The format is functional, cell-based.
For the next data set, the system named is DOHH-2. In words: Antiproliferative activity against human DOHH-2 cells assessed as inhibition of cell proliferation by MTT assay. The format is functional, cell-based.
Another data set deals with Rec1. Description: Antiproliferative activity against human REC1 cells assessed as inhibition of cell proliferation by MTT assay. The format is functional, cell-based.
Data set [10] can be described thus: Antiproliferative activity against human MINO cells assessed as inhibition of cell proliferation by MTT assay. The format is functional, cell-based.
Another data set deals with L02. In words: Antiproliferative activity against human L02 cells assessed as reduction in cell viability by MTT assay. It is filed as functional, cell-based.
The subject of the next data set is HEK293. Description: Antiproliferative activity against human HEK293 cells assessed as reduction in cell viability by MTT assay. It is filed as functional, cell-based.
Data set [11] in a line: Oral bioavailability in rat at 30 mg/kg measured upto 8 hrs. The format is ADME, organism-based. The conditions noted are these: in vivo.
The target of data set [12] is T1, Tyrosine-protein kinase BTK. Description: Inhibition of recombinant human wild type BTK using Poly(Glu4,Tyr1) and ATP as substrate measured after 2 hrs by ADP-Glo kinase assay.
Data set [13] can be described thus: Inhibition of recombinant human BTK cys481S mutant using Poly(Glu4,Tyr1) and ATP as substrate measured after 2 hrs by ADP-Glo kinase assay.
For data set [14], the system named is TMD8. In words: Antiproliferative activity against human TMD8 cells assessed as reduction in cell viability incubated for 96 hrs by MTT assay. The format is functional, cell-based. The conditions noted are these: TMD8, 96 h.
In data set [15] the test system is Raji. In words: Antiproliferative activity against human Raji cells assessed as reduction in cell viability incubated for 96 hrs by MTT assay. It is filed as functional, cell-based.
Data set [16] deals with TMD8. In words: Antitumor activity against human TMD8 cells xenografted in SCID mouse assessed as tumor growth inhibition at 1.5 mg/kg, po bid administered daily 20 days by caliper analysis. The format is functional. The conditions noted are these: TMD8, 480 h, time 20 day, read-out: TGI.
For data set [17], the system named is TMD8. Description: Antitumor activity against human TMD8 cells xenografted in SCID mouse assessed as tumor growth inhibition at 3 mg/kg, po bid administered daily 20 days by caliper analysis. The format is functional. The conditions noted are these: TMD8, 480 h, time 20 day, read-out: TGI.
The test system of data set [18] is TMD8. Description: Antitumor activity against human TMD8 cells xenografted in SCID mouse assessed as tumor growth inhibition at 15 mg/kg, po bid administered daily 20 days by caliper analysis. It is filed as functional. The conditions noted are these: TMD8, 480 h, time 20 day, read-out: TGI.
The target in data set [19] is T1, Tyrosine-protein kinase BTK. In words: Inhibition of BTK (unknown origin) incubated for 60 mins by ADP-Glo kinase assay.
In the next data set the test system is NAMALVA. Description: Antiproliferative activity against human NAMALWA cells assessed as reduction in cell viability measured after 72 hrs by CCK-8 assay. The format is functional, cell-based.
Data set [20] concerns Ramos. Description: Antiproliferative activity against human Ramos cells assessed as reduction in cell viability measured after 72 hrs by CCK-8 assay. It is filed as functional, cell-based.
Data set [21] concerns Raji. In words: Antiproliferative activity against human Raji cells assessed as reduction in cell viability measured after 72 hrs by CCK-8 assay. The format is functional, cell-based.
A further data set has as its system HL-60. Description: Antiproliferative activity against human HL-60 cells assessed as reduction in cell viability measured after 72 hrs by CCK-8 assay. The conditions noted are these: HL-60, 72 h.
Data set [22] has as its system U-937. In words: Antiproliferative activity against human U-937 cells assessed as reduction in cell viability measured after 72 hrs by CCK-8 assay. The conditions noted are these: U-937, 72 h.
The subject of data set [23] is U-937. In words: Induction of apoptosis in human U-937 cells assessed as […] at 40 nM incubated for 48 hrs by AnnexinV-FITC/propidium iodide staining based flow cytometry analysis relative to control. It is filed as functional.

T1 sequence (Q06187 whole entry): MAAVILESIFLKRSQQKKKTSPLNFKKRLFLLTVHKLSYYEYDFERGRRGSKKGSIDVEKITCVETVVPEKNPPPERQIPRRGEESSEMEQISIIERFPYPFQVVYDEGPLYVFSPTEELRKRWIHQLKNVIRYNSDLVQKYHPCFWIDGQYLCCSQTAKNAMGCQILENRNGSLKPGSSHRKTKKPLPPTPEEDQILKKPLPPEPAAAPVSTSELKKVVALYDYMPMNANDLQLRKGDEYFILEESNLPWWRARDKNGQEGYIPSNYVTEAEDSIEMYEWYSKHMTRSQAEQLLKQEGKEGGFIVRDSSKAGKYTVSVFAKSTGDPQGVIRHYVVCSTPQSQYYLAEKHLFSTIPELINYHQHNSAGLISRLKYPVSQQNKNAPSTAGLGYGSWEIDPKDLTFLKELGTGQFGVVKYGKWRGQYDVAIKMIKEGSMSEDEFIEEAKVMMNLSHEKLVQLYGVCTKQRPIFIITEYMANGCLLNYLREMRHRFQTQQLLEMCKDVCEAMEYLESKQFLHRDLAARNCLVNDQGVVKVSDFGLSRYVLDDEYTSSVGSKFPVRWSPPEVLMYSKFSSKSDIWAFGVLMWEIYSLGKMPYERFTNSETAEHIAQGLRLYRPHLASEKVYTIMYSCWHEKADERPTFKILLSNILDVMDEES
Chain of Bcr/Abl fusion protein (P00519 whole entry, the tested form may be a part): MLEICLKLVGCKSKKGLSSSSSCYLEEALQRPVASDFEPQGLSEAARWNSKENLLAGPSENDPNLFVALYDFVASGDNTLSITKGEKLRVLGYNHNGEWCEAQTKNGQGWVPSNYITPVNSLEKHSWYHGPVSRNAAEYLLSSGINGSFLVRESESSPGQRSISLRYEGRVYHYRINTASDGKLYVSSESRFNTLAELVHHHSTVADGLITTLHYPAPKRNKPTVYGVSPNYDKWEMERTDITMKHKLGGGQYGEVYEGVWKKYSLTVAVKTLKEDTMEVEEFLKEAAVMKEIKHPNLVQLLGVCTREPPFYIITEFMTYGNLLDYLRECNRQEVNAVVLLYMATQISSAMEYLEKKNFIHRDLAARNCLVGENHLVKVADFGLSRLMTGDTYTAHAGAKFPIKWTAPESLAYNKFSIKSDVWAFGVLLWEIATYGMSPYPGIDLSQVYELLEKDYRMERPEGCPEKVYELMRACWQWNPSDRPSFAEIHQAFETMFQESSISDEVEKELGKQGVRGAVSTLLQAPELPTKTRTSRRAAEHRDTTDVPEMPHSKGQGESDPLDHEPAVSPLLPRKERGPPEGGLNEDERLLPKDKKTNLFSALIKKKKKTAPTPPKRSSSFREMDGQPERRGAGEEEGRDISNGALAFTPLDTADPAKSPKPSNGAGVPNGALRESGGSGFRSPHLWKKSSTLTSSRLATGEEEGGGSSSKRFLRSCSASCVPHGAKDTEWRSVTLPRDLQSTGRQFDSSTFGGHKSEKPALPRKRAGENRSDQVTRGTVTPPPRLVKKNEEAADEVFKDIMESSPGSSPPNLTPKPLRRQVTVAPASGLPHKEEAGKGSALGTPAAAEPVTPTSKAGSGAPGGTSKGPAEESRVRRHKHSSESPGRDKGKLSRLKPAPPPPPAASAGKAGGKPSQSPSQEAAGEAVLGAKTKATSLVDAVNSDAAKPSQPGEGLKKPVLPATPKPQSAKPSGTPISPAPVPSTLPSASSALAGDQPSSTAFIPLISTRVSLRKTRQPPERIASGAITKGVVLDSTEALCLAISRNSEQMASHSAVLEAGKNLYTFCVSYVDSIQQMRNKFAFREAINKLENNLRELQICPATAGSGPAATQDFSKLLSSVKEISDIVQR
Chain of Bcr/Abl fusion protein (P11274 whole entry, further chain, the tested form may be a part): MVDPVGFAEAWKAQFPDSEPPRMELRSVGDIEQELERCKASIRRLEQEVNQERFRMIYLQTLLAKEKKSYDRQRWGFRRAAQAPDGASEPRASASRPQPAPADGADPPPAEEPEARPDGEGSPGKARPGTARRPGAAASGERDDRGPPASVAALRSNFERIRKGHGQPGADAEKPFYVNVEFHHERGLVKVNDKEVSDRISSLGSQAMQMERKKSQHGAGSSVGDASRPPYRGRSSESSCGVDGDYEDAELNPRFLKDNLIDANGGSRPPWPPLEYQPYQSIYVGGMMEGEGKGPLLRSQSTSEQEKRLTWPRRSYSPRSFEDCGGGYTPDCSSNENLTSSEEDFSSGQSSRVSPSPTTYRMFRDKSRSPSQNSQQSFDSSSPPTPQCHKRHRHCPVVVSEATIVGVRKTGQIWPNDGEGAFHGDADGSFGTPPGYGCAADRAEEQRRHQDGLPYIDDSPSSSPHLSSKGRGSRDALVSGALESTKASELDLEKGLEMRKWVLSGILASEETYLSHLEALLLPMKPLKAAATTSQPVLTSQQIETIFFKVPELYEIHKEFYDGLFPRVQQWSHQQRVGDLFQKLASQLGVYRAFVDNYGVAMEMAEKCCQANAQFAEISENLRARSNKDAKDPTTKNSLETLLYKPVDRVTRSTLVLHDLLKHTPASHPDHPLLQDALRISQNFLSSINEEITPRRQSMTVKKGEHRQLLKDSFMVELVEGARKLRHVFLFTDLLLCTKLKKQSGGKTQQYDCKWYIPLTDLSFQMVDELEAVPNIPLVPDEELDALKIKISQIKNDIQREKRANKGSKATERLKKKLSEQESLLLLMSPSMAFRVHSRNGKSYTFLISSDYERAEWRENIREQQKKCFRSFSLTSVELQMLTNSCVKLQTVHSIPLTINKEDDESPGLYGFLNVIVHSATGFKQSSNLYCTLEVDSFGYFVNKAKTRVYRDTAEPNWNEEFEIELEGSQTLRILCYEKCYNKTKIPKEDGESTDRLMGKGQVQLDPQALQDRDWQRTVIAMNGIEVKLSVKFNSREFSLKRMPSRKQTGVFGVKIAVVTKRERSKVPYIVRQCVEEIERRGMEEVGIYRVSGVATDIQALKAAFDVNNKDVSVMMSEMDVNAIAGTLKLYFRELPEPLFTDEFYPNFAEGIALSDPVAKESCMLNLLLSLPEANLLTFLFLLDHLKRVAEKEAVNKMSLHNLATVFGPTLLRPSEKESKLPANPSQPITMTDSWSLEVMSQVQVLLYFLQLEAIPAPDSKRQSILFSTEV

As for `Nc1ncnc2c1c(-c1ccc(Oc3ccccc3)nc1)nn2C1CCCN(C(=O)CCl)C1` (stereo not given), the IC50 (commonly the midpoint of a concentration-inhibition curve) worked out at 36 nM in data set [1], 400 nM in data set [2] and 400 nM in the data set on Z-138.
On to `C=CS(=O)(=O)N1CCC(Cn2cc(-c3ccc4c(c3)OCO4)c3c(N)ncnc32)CC1`, for which the IC50 in [3] was found to be 1.32 nM. For the same compound, the solubility kinetic in [4] was found to be 100 µg/mL (≈ 226 µM).
For `Nc1cccc(Cn2nc(-c3ccc(Oc4ccccc4)cc3)c3c(N)ncnc32)c1`, the IC50 in data set [1] was 75 nM; in data set [2], 9500 nM.
Consider `C=CC(=O)Nc1cccc(N2C(=O)OC(C)c3cnc(Nc4ccc(N5CCN(C)CC5)cc4OC)nc32)c1` (stereo not given), for which the IC50 in [3] was found to be 7 nM; in [5], 47.4 nM; in the data set with TMD8 [6] it was 28 nM.
On to `CN1CCN(c2ccc(Nc3nc(Nc4ccc(F)c(F)c4)c4ncn(CC5CC5)c4n3)cc2F)CC1`, for which the IC50 in [7] was found to be 2650 nM; on Bcr/Abl fusion protein it was 580 nM. Also, the GI50 (commonly the concentration at which growth is held to half of that of the control) in the data set with Ramos [8] was 4100 nM.
Turning to `C=C(Cl)C(=O)N1CCC[C@H](n2nc(-c3ccc(Oc4ccccc4)cc3)c3c(N)ncnc32)C1`, the IC50 in data set [9] was 2.5 nM; in the data set with OCI-Ly10 it was 160 nM; in the data set with DOHH-2 it was 220 nM; in the data set on Rec1, 10 nM; in data set [10], 560 nM; with L02, 15900 nM. Moreover, in the data set on HEK293, the IC50 was 5460 nM. Also, in data set [11], the bioavailability (commonly dose-corrected exposure relative to a reference, in per cent) was 6%.
Consider `C=CC(=O)N1CCCC(Cn2cc(-c3ccc(Oc4ccccc4)cc3)c3c(N)ncnc32)C1` (single isomer, unassigned), for which the IC50 in data set [3] was found to be 1.71 nM.
With `C=CC(=O)N1CC2CC(n3nc(-c4ccc(C(=O)Nc5ccccn5)cc4)c4c(N)ncnc43)CC2C1` (stereo not given), the IC50 in data set [12] came out at 1 nM; in data set [13], 14 nM; with TMD8 [14] it was 0.78 nM; in the data set on Raji [15], 13200 nM. The inhibition in vivo at 1.5 mg/kg in the data set with TMD8 [16] is 10%. In addition, in the data set on TMD8 [17], the inhibition in vivo at 3 mg/kg is 50%. The inhibition in vivo at 15 mg/kg in the data set with TMD8 [18] turned out to be 88%.
`CN1CCN(c2ccc(Nc3nc(Nc4ccc(F)c(F)c4)c4ncn(CC5CC5)c4n3)cc2)CC1`: the IC50 in [7] was 580 nM. Moreover, the GI50 in the data set on Ramos [8] amounted to 4630 nM.
Consider `C=CC(=O)Nc1cccc(Nc2nc(Nc3ccc(Cn4cc(C)nc4CC)cc3)ncc2F)c1`, for which the IC50 in data set [19] was 42.4 nM; in the data set with NAMALVA it was under 10800 nM; in the data set on Ramos [20], under 10800 nM; in the data set with Raji [21] it was under 10800 nM; in the data set with HL-60, 116 nM; in the data set on U-937 [22] it was 106 nM.
As for `Nc1ccc(Cn2nc(-c3ccc(Oc4ccccc4)cc3)c3c(N)ncnc32)cc1`, the IC50 in [1] is 82 nM; in data set [2], 13900 nM.
Turning to `C=CC(=O)Nc1cccc(Nc2nc(Nc3ccc(Cn4cc(C)nc4CC)cc3)ncc2Cl)c1`, the IC50 in data set [19] is 17.7 nM; with NAMALVA it was under 10800 nM; with Ramos [20], under 10800 nM; in the data set on Raji [21] it was under 10800 nM; with HL-60 it was 109 nM; with U-937 [22], 38 nM. For the same compound, in the data set with U-937 [23], the Activity is listed as 55%.
As to `C=CC(=O)Nc1cccc(N2C(=O)OCc3cnc(Nc4ccc(N5CCN(C)CC5)cc4OC)nc32)c1`, the IC50 in data set [3] was found to be 4.7 nM; in data set [5], 28.8 nM.
Take `Nc1ncnc2c1c(-c1ccc(Oc3ccccc3)cc1)nn2Cc1cccc(NC(=O)CCl)c1`: the IC50 stood at 27 nM in data set [1] and 900 nM in data set [2].

Source of the values: ChEMBL document CHEMBL5149979, “Emerging small-molecule inhibitors of the Bruton's tyrosine kinase (BTK): Current development” (Eur J Med Chem, 2021).
